The values below come from paper PMC8766476, “Repurposing the Pathogen Box compounds for identification of potent anti-malarials against blood stages of Plasmodium falciparum with PfUCHL3 inhibitory activity” (Scientific Reports, 2022).

Where two headings read alike, the source gives them in different places.

The assay deals with T1, PfUCHL3 (Plasmodium falciparum, UniProt Q8IKM8).
T1 construct: gene UCHL3
Kind of assay: fluorimetric Ub-AMC deubiquitinase assay with recombinant purified PfUCHL3, dose-response. Format: biochemical.

T1 sequence (Q8IKM8 whole entry): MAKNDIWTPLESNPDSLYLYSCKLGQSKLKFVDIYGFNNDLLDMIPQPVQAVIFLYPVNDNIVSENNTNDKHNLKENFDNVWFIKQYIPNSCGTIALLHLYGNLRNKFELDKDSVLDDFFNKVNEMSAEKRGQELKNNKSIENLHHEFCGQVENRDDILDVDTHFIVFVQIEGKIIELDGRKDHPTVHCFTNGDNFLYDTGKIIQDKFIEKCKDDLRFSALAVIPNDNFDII

For orientation: IC50 means the concentration that gives 50% inhibition. `Cc1cc2nc(NC(=O)C(C)(C)C)nc(Cl)c2n1Cc1ccc(Cl)cc1` [compound 2, MMV688704]: the IC50 (read-out: IC50) turned out to be 87.1 ± 1.75 µM. Turning to `CC1COC2(CCN(c3nc(=O)c4cc(C(F)(F)F)cc([N+](=O)[O-])c4s3)CC2)O1` (centres unmarked) [compound 1, MMV676603], the IC50 was 25.1 ± 1.8 µM.
